# Entries after “also recorded” stand apart in the source; their conditions may differ.
# Experiments:
# [1] = In vitro compound cytotoxicity assay (WST-1); assay type: cell-based; details: human, uninfected HCT-8 cells
# Method: Compounds were tested for cytotoxicity in human ileocecal colorectal adenocarcinoma cells [HCT-8 (HRT-18); ATCC® CCL-244™, CVCL_2478] by using the cell proliferation reagent WST-1 (Roche) according to the manufacturer’s protocol. The WST-1 assay is a quantitative colorimetric assay for measurement of metabolically active cells. This assay is based on the reduction of the tetrazolium salt (WST-1) by viable cells. About 5 × 10^4 HCT-8 cells were seeded per well in 96-well plates and grown overnight in 200 μl of RPMI-1640 medium (without phenol red) (Gibco) supplemented with 2.5 g/L of glucose, 1 mM sodium pyruvate, 1.5 g/L of sodium bicarbonate, 10% heat-inactivated FBS (Gibco), and 1 × Antibiotic-Antimycotic (Gibco) at 37°C with 5% CO2 in a humidified incubator. Upon reaching 80–90% confluency, cells were treated with the chemical compounds reconstituted in DMSO for 24 h. The volume of DMSO was kept below 1% of the total culture volume in all the wells to avoid DMSO cytotoxicity. Control wells received equivalent volumes of DMSO used in the reconstituted compounds. After 24 h of culture, 10 μl of the WST-1 reagent was added to each well, and the plates were incubated for 1 h at 37°C with 5% CO2 under dark conditions. The plates were shaken thoroughly and 150 μl of the medium from each well was transferred to a new clear flat-bottom black 96-well plate (Corning). Absorbance was read at a test wavelength of 440 nm and a reference wavelength of 690 nm using a multi-mode microplate reader (Spectra Max iD3; Molecular Devices, United States). The mean percent toxicity (MPT) of each compound was derived by dividing the difference in absorbance (OD) between the compound-treated cells and the DMSO-treated cells by the absorbance from the DMSO-treated cells and multiplying the product by 100:
# (2) MPT=[(MeanODDMSO-treated-MeanODCompound-treated)÷MeanODDMSO-treated]×100.
# The half maximal cytotoxic concentration (CC50) values were determined by using non-linear regression analysis in GraphPad PRISM® v8. Assays were performed in triplicate and repeated three times.
# C. parvum = assay: Histopathology of distal small intestine of C. parvum-infected IFN-γ KO mice; assay type: in vivo, Cryptosporidium parvum; details: sacrificed day 11 PI
# Method: Eight weeks old male interferon-gamma knockout (IFN-γ KO) mice (B6.129S7-Ifng^TM1Ts/J) were purchased from The Jackson Laboratory, United States, and allowed to quarantine and acclimatize for 1 week before the commencement of experiments. Before the start of the infection assays in mice, the tolerability of each inhibitor was determined by daily oral gavage with varying dosages (0–10 mg/kg mouse bodyweight) in groups of mice (n = 3 mice per group) for 8 days. During this period, mice were monitored daily for any changes in physical and mental activity, feeding, body weight, body temperature, fur condition, and body posture. […] Mice were divided into infected and uninfected groups (n = 3 mice per group) and each individual mouse was housed in a separate cage lined with sterile gauze bedding. Each mouse from the infected group was infected by oral gavage administration of 10^4 C. parvum AUCP-1 isolate oocysts suspended in 50 μl of PBS. Beginning day 3 PI, groups of mice were orally treated with CpPyK inhibitors (at the specified doses), sham (100 μl of 5% DMSO in PBS), or 1,000 mg/kg paromomycin (in sterile water) once daily for a total of 8 days. Fecal pellets were collected daily in individual sterile 15 ml tubes, and submerged in an equivalent volume of PBS containing a cocktail of penicillin (100 units/ml), streptomycin (100 μg/ml), chloramphenicol (34 μg/ml), and amphotericin (0.25 μg/ml), and stored at 4°C until use. Three independent replicate infection assays were performed. Mice were sacrificed at day 11 PI, and 5 cm of the distal small intestine just anterior to the cecum was resected and submerged in 10% neutral buffered formalin and submitted for histopathological processing in the Comparative Biosciences Histology Laboratory at the University of Illinois at Urbana-Champaign. Briefly, intestinal tissues preserved in 10% neutral buffered formalin were washed in 70% ethanol, embedded in paraffin, and sectioned transversely at a thickness of 5 μm. Sections were stained with hematoxylin and eosin. The slides were imaged using a Zeiss microscope fitted with a color camera.
# [2] = ref https://pubchem.ncbi.nlm.nih.gov, cited from earlier work; for Polar surface area: topological
# [3] = 10 mg/kg daily oral from day 3 PI
# [4] = 2.5 mg/kg daily oral from day 3 PI
smiles,measurement,setting,value
"c1ccc(-c2nnc(-c3ccccn3)[nH]2)nc1 [NSC234945, 2-(3-pyridin-2-yl-1H-1,2,4-triazol-5-yl)pyridine]",CC50 at 24 h,[1],432 µM
same,"intestinal pathology (histology, distal small intestine)",C. parvum; [3],best efficacy; also recorded: notably reduced pathological changes
same,Number of Hydrogen bond acceptors,[2],4
same,Number of Hydrogen bond donors,[2],1
same,Polar surface area,[2],67.4 Å²
"CCOc1ccc(/C=C2\CCc3ccccc3C2=O)cc1 [NSC252172, (2E)-2-[(4-ethoxyphenyl)methylidene]-3,4-dihydronaphthalen-1-one]",CC50 at 24 h,[1],266 µM
same,"intestinal pathology (histology, distal small intestine)",C. parvum; [3],notably reduced pathological changes
same,Number of Hydrogen bond acceptors,[2],2
same,Number of Hydrogen bond donors,[2],0
same,Polar surface area,[2],26.3 Å²
"Cc1cc2c(c(C#N)c1C)NC=NC2C (centres unmarked) [NSC303244, 4,6,7-trimethyl-1,4-dihydroquinazoline-8-carbonitrile]",CC50 at 24 h,[1],660 µM
same,"intestinal pathology (histology, distal small intestine)",C. parvum; [4],reduced intestinal pathology
same,Number of Hydrogen bond acceptors,[2],2
same,Number of Hydrogen bond donors,[2],1
same,Polar surface area,[2],48.2 Å²
"N#C/C(=C\c1cc(O)c(O)c(O)c1)C(N)=O [NSC638080, (E)-2-cyano-3-(3,4,5-trihydroxyphenyl)prop-2-enamide]",CC50 at 24 h,[1],750 µM
same,"intestinal pathology (histology, distal small intestine)",C. parvum; [4],reduced intestinal pathology
same,Number of Hydrogen bond acceptors,[2],5
same,Number of Hydrogen bond donors,[2],4
same,Polar surface area,[2],128 Å²

# Source: paper PMC8761912, “Cryptosporidium parvum Pyruvate Kinase Inhibitors With in vivo Anti-cryptosporidial Efficacy” (Frontiers in Microbiology, 2022)
